Numbers after ± are expanded uncertainties.
Test: xn = mol fraction of the nth substance listed
Details: 101 kPa, Liquid; for speed of sound: Sing-around technique in a fixed-path interferometer; for mass density: Vibrating tube method; for viscosity: Capillary tube (Ostwald / Ubbelohde) method

CCCCOCCO [2-butoxyethan-1-ol] + CCCCO
Details | mass density, 303.15 K [kg/m3] | mass density, 308.15 K [kg/m3] | mass density, 313.15 K [kg/m3] | speed of sound, 303.15 K [m/s] | speed of sound, 308.15 K [m/s] | speed of sound, 313.15 K [m/s] | viscosity, 308.15 K [mPa·s]
x1 = 0.0516 | 808.67 ± 0.12 | 804.78 ± 0.12 | 800.853 ± 0.12 | – | 1211.8 ± 0.69 | 1195.2 ± 0.69 | 2.029 ± 0.12
x1 = 0.1011 | 814.69 ± 0.12 | 810.77 ± 0.12 | 806.824 ± 0.12 | – | 1216.3 ± 0.69 | 1199.7 ± 0.69 | 2.008 ± 0.12
x1 = 0.1535 | 820.82 ± 0.11 | 816.87 ± 0.12 | 812.87 ± 0.12 | – | 1220.7 ± 0.69 | 1204.1 ± 0.69 | 1.994 ± 0.12
x1 = 0.2027 | 826.35 ± 0.11 | 822.39 ± 0.11 | 818.34 ± 0.12 | – | 1224.7 ± 0.69 | 1208.2 ± 0.69 | 1.98 ± 0.12
x1 = 0.2537 | 831.87 ± 0.11 | 827.9 ± 0.11 | 823.81 ± 0.12 | – | 1228.7 ± 0.69 | 1212.2 ± 0.69 | 1.966 ± 0.12
x1 = 0.3027 | 836.98 ± 0.11 | 832.98 ± 0.11 | 828.88 ± 0.11 | – | 1232.3 ± 0.69 | 1215.9 ± 0.69 | –
x1 = 0.3028 | – | – | – | – | – | – | 1.965 ± 0.12
x1 = 0.4 | 846.49 ± 0.11 | 842.45 ± 0.11 | 838.34 ± 0.11 | – | 1239.1 ± 0.69 | 1222.7 ± 0.69 | 1.968 ± 0.12
x1 = 0.5055 | 855.99 ± 0.11 | 851.91 ± 0.11 | 847.79 ± 0.11 | 1262.6 ± 0.7 | 1245.9 ± 0.69 | 1229.5 ± 0.69 | 1.981 ± 0.12
x1 = 0.6054 | 864.3 ± 0.1 | 860.19 ± 0.1 | 856.04 ± 0.1 | 1268.6 ± 0.7 | 1251.9 ± 0.69 | 1235.4 ± 0.69 | 2.006 ± 0.12
x1 = 0.7025 | 871.83 ± 0.094 | 867.68 ± 0.096 | 863.5 ± 0.097 | 1274 ± 0.7 | 1257.4 ± 0.69 | 1240.7 ± 0.68 | 2.045 ± 0.12
x1 = 0.8042 | 879.17 ± 0.089 | 875.01 ± 0.091 | 870.78 ± 0.092 | 1279.4 ± 0.7 | 1262.8 ± 0.69 | 1246 ± 0.68 | 2.106 ± 0.12
x1 = 0.8552 | 882.67 ± 0.087 | 878.5 ± 0.089 | 874.26 ± 0.09 | 1282 ± 0.69 | 1265.3 ± 0.69 | 1248.5 ± 0.68 | 2.138 ± 0.12
x1 = 0.906 | 886.07 ± 0.085 | 881.88 ± 0.087 | 877.63 ± 0.089 | 1284.5 ± 0.69 | 1267.8 ± 0.69 | 1251 ± 0.68 | 2.175 ± 0.12
x1 = 0.9526 | 889.1 ± 0.084 | 884.89 ± 0.085 | 880.64 ± 0.087 | 1286.7 ± 0.69 | 1270 ± 0.69 | 1253.2 ± 0.68 | 2.204 ± 0.12

— the NIST ThermoML archive (doi:10.1016/j.fluid.2013.06.021)
